From patent US11512080B2, “CRBN ligands and uses thereof” (Kymera Therapeutics, Inc., priority 2018, dated 2022)
pIC50: −log10 of the molar value.

These compounds were tested against His-tagged CRBN-DDB1 complex (Homo sapiens (Human), UniProt Q96SW2) (assay: Time-Resolved Fluorescence Resonance Energy Transfer (TR-FRET) assay). Settings: competition with Cy5-labeled thalidomide (8 nM), 1 hour at room temperature; read-out: CRBN HTRF IC50.
Assay type: binding
Method: The mixture were incubated at room temperature for 1 hour. […] Quantitative loss of FRET efficiency as a function of compound concentrations was fitted by a four-parameter Logistic Function using GraphPad Prism 7.0 and the IC50 values were reported for each compound.
The compound numbers correspond to the compound numbers in Table 1.

Chain of His-tagged CRBN-DDB1 complex (Q96SW2 whole entry): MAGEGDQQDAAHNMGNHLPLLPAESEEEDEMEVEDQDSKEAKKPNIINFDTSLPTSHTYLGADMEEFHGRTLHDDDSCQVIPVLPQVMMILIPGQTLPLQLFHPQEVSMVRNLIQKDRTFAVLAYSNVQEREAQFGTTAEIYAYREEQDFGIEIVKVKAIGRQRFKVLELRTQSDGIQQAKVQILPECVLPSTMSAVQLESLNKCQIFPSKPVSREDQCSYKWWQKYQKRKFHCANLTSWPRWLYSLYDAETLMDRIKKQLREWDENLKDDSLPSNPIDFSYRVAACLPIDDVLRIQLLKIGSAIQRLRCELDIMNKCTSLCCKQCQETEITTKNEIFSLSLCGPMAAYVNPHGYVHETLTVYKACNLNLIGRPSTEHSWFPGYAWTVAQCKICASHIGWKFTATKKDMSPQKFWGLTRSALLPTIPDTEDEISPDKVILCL
Chain of His-tagged CRBN-DDB1 complex (Q16531 whole entry partner): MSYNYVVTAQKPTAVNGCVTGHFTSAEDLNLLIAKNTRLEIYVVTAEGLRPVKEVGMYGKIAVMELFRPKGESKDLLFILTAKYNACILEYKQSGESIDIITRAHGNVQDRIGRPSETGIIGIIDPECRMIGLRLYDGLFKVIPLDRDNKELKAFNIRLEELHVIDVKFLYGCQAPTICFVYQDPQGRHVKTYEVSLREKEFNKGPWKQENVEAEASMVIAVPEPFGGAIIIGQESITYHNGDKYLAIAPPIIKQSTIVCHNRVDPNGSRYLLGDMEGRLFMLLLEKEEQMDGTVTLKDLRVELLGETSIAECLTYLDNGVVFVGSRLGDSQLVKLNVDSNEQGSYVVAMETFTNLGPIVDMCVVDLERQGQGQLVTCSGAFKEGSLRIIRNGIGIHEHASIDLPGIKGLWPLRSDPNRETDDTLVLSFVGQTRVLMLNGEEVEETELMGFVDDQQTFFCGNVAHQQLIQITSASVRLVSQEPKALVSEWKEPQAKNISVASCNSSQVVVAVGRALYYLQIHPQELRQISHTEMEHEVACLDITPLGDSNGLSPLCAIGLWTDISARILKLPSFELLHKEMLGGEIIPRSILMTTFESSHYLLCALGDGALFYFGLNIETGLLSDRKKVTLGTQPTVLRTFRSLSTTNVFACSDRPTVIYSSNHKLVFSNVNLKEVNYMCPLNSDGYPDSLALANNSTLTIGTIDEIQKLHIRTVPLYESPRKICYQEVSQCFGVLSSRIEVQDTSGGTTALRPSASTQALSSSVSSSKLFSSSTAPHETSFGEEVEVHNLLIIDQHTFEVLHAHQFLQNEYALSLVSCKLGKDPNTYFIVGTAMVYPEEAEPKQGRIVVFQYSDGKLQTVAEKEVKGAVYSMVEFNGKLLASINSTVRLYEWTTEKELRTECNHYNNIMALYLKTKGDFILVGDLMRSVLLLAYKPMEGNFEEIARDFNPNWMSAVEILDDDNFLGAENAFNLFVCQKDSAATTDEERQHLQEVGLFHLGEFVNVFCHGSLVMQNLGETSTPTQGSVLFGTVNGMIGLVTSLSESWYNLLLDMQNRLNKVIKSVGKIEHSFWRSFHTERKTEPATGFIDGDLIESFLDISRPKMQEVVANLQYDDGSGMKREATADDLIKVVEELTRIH

pIC50 | Structure (SMILES)
5.00 to 6.00 | O=C1CCC(Sc2nc3ccc(Cl)cc3[nH]2)C(=O)N1 (centres unmarked) [Compound I-8]
< 4.00 | O=c1ccn(-c2ccccn2)c(=O)[nH]1 [Compound I-28, 1-(pyridin-2-yl)pyrimidine-2,4(1H,3H)-dione]
< 4.00 | Cn1c(=O)n(C2SC(=O)NC2=O)c2ccccc21 (centres unmarked) [Compound I-39]
< 4.00 | Cn1cc(C2SC(=O)NC2=O)c2ccccc21 (centres unmarked) [Compound I-71, 5-(1-Methyl-1H-indol-3-yl)thiazolidine-2,4-dione]
< 4.00 | Cn1ccnc1SC1CCC(=O)NC1=O (centres unmarked) [Compound I-73]
< 4.00 | Cn1ccc(N2CCC(=O)NC2=O)n1 [Compound I-76]
< 4.00 | O=C1CN(C2SC(=O)NC2=O)CCN1 (centres unmarked) [Compound I-77, 5-(3-Oxopiperazin-1-yl)thiazolidine-2,4-dione]
< 4.00 | Cn1nc(C2SC(=N)NC2=O)c2ccccc21 (centres unmarked) [Compound I-81, 2-Imino-5-(1-methyl-1H-indazol-3-yl)thiazolidin-4-one]
< 4.00 | O=C1NC(=O)C(N2CCN(c3ccccc3)CC2=O)S1 (centres unmarked) [Compound I-82, 5-(2-Oxo-4-phenylpiperazin-1-yl)thiazolidine-2,4-dione]
< 4.00 | O=C1CCC(SC2CCCCC2)C(=O)N1 (centres unmarked) [Compound I-116]

Same assay, conditions: read-out: CRBN HTRF IC50

pIC50 | Structure (SMILES)
5.00 to 6.00 | O=C1CCC(Sc2nc3ccc(Cl)cc3[nH]2)C(=O)N1 (centres unmarked) [Compound I-94]
4.00 to 5.00 | Cc1cc(O)nc(SC2CCC(=O)NC2=O)n1 (centres unmarked) [Compound I-95, 3-((4-hydroxy-6-methylpyrimidin-2-yl)thio)piperidine-2,6-dione]
4.00 to 5.00 | O=C1CCC(Sc2nc3ccccc3[nH]2)C(=O)N1 (centres unmarked) [Compound I-96]
5.00 to 6.00 | O=C1CCC(Sc2cccc3cccnc23)C(=O)N1 (centres unmarked) [Compound I-97]
4.00 to 5.00 | O=C1CCC(Sc2ccc(C(F)(F)F)cn2)C(=O)N1 (centres unmarked) [Compound I-98]
5.00 to 6.00 | O=C1CCC(Sc2ccccc2OC(F)(F)F)C(=O)N1 (centres unmarked) [Compound I-99]
5.00 to 6.00 | O=C1CCC(Sc2cc(Cl)ccc2Cl)C(=O)N1 (centres unmarked) [Compound I-101]
4.00 to 5.00 | O=C1CCC(Sc2cc(Cl)c(Cl)cc2Cl)C(=O)N1 (centres unmarked) [Compound I-102]
4.00 to 5.00 | O=C1CCC(Oc2ccccc2)C(=O)N1 (centres unmarked) [Compound I-103]
5.00 to 6.00 | O=C1CCC(Sc2ccc(Br)cn2)C(=O)N1 (centres unmarked) [Compound I-104]
4.00 to 5.00 | Cn1ccc(CN2CCC(=O)NC2=O)n1 [Compound I-106]
5.00 to 6.00 | O=C1CCC(Sc2cccc(Br)c2)C(=O)N1 (centres unmarked) [Compound I-108, 3-((3-Bromophenyl)thio)piperidine-2,6-dione]
4.00 to 5.00 | O=C1CCC(Sc2ccccc2C(F)(F)F)C(=O)N1 (centres unmarked) [Compound I-109]
5.00 to 6.00 | O=C1CCC(Sc2cccc[n+]2[O-])C(=O)N1 (centres unmarked) [Compound I-110]
5.00 to 6.00 | O=C1CCC(Sc2cc(C(=O)O)ccn2)C(=O)N1 (centres unmarked) [Compound I-111]
4.00 to 5.00 | O=C1CCC(Sc2ccc(CO)cc2)C(=O)N1 (centres unmarked) [Compound I-112]
4.00 to 5.00 | Nc1cc(=O)nc(SC2CCC(=O)NC2=O)[nH]1 (centres unmarked) [Compound I-113]
4.00 to 5.00 | O=C1CCC(Sc2ccc(F)c(F)c2)C(=O)N1 (centres unmarked) [Compound I-114]
5.00 to 6.00 | CC(C)(C)c1ccc(OC2CCC(=O)NC2=O)cc1 (centres unmarked) [Compound I-115]
4.00 to 5.00 | N#Cc1ccccc1SC1CCC(=O)NC1=O (centres unmarked) [Compound I-117]
4.00 to 5.00 | Cn1c(=O)c(C2SC(=O)NC2=O)cc2ccccc21 (centres unmarked) [Compound I-118, 5-(1-methyl-2-oxo-1,2-dihydroquinolin-3-yl)thiazolidine-2,4-dione]
5.00 to 6.00 | O=C1CCC(Oc2ccc3ccccc3c2)C(=O)N1 (centres unmarked) [Compound I-119]
4.00 to 5.00 | Nc1cc(C(F)(F)F)ccc1SC1CCC(=O)NC1=O (centres unmarked) [Compound I-120]
5.00 to 6.00 | CCc1cccc(SC2CCC(=O)NC2=O)c1 (centres unmarked) [Compound I-121, 3-((3-ethylphenyl)thio)piperidine-2,6-dione]
5.00 to 6.00 | O=C1CCC(Sc2cccc(Cl)c2)C(=O)N1 (centres unmarked) [Compound I-122]
4.00 to 5.00 | O=C1CCC(Sc2cccc(C(=O)O)c2)C(=O)N1 (centres unmarked) [Compound I-123]
5.00 to 6.00 | CCCCc1ccc(OC2CCC(=O)NC2=O)cc1 (centres unmarked) [Compound I-124]
5.00 to 6.00 | CN(C)c1ccc(OC2CCC(=O)NC2=O)cc1 (centres unmarked) [Compound I-125]
5.00 to 6.00 | O=C1CCC(Sc2ncccc2C(=O)O)C(=O)N1 (centres unmarked) [Compound I-126]
4.00 to 5.00 | O=C1CCC(Sc2cccc(CO)c2)C(=O)N1 (centres unmarked) [Compound I-127, 3-((3-(Hydroxymethyl)phenyl)thio)piperidine-2,6-dione]

The next lines start with the compound.

Structure (SMILES) | pIC50
O=C1CCC(Sc2ccccc2)C(=O)N1 (centres unmarked) [Compound I-4, 3-(phenylthio)piperidine-2,6-dione] | 4.00 to 5.00
O=C1CCC(Sc2ccccn2)C(=O)N1 (centres unmarked) [Compound I-6, 3-(pyridin-2-ylthio)piperidine-2,6-dione] | 4.00 to 5.00
O=C1CCC(Sc2ccc(F)cc2)C(=O)N1 (centres unmarked) [Compound I-7] | 4.00 to 5.00
COc1ccc(SC2CCC(=O)NC2=O)cc1 (centres unmarked) [Compound I-9, 3-((4-methoxyphenyl)thio)piperidine-2,6-dione] | 4.00 to 5.00
O=C1CCC(Sc2ccc(C(=O)O)cc2)C(=O)N1 (centres unmarked) [Compound I-10, 4-((2,6-dioxopiperidin-3-yl)thio)benzoic acid] | 4.00 to 5.00
CCn1c(SC2CCC(=O)NC2=O)nc2ccccc21 (centres unmarked) [Compound I-11, 3-((1-ethyl-1H-benzo[d]imidazol-2-yl)thio)piperidine-2,6-dione] | 5.00 to 6.00
Cn1c(SC2CCC(=O)NC2=O)nc2ccccc21 (centres unmarked) [Compound I-12, 3-(1-Methyl-1H-benzoimidazol-2-ylsulfanyl)-piperidine-2,6-dione] | 4.00 to 5.00
CC(=O)Nc1ccc(SC2CCC(=O)NC2=O)cc1 (centres unmarked) [Compound I-13, N-[4-(2,6-Dioxo-piperidin-3-ylsulfanyl)-phenyl]-acetamide] | 4.00 to 5.00
Nc1ccc(SC2CCC(=O)NC2=O)cc1 (centres unmarked) [Compound I-14, 3-(4-Amino-phenylsulfanyl)-piperidine-2,6-dione] | 4.00 to 5.00
O=C1CCC(Sc2ccc(Cl)cc2)C(=O)N1 (centres unmarked) [Compound I-15, 3-((4-chlorophenyl)thio)piperidine-2,6-dione] | 4.00 to 5.00
O=C1CCC(Sc2ccc(C(F)(F)F)cc2)C(=O)N1 (centres unmarked) [Compound I-16, 3-((4-(trifluoromethyl)phenyl)thio)piperidine-2,6-dione] | 4.00 to 5.00
CCc1ccc(SC2CCC(=O)NC2=O)cc1 (centres unmarked) [Compound I-17, 3-((4-ethylphenyl)thio)piperidine-2,6-dione] | 5.00 to 6.00
O=C1CCN(Cc2ccccc2)C(=O)N1 [Compound I-24, 1-Benzyl-dihydro-pyrimidine-2,4-dione] | 4.00 to 5.00
O=c1ccn(-c2ccccc2)c(=O)[nH]1 [Compound I-27, 1-phenylpyrimidine-2,4(1H,3H)-dione] | 4.00 to 5.00
O=C1NC(=O)C(N2CC(c3ccccc3)OC2=O)S1 (centres unmarked) [Compound I-38] | 4.00 to 5.00
O=C1CCC(Sc2ccncc2)C(=O)N1 (centres unmarked) [Compound I-62] | 4.00 to 5.00
CC(C)(C)n1c(SC2CCC(=O)NC2=O)nc2ccccc21 (centres unmarked) [Compound I-63, 3-((1-(tert-Butyl)-1H-benzo[d]imidazol-2-yl)thio)piperidine-2,6-dione] | 4.00 to 5.00
CCc1ccc([S+]([O-])C2CCC(=O)NC2=O)cc1 (centres unmarked) [Compound I-64, 3-((4-ethylphenyl)sulfinyl)piperidine-2,6-dione] | 4.00 to 5.00
CCc1ccc(S(=O)(=O)C2CCC(=O)NC2=O)cc1 (centres unmarked) [Compound I-65, 3-((4-ethylphenyl)sulfonyl)piperidine-2,6-dione] | 4.00 to 5.00
Cc1ccc(SC2CCC(=O)NC2=O)cc1 (centres unmarked) [Compound I-66] | 4.00 to 5.00

Structure (SMILES) | pIC50
N#Cc1ccc(SC2CCC(=O)NC2=O)cc1 (centres unmarked) [Compound I-67, 4-((2,6-Dioxopiperidin-3-yl)thio)benzonitrile] | 4.00 to 5.00
CC(C)c1ccc(SC2CCC(=O)NC2=O)cc1 (centres unmarked) [Compound I-68] | 5.00 to 6.00
Cc1cccc(SC2CCC(=O)NC2=O)c1 (centres unmarked) [Compound I-69] | 4.00 to 5.00
O=C1CCC(Sc2nc3ccccc3n2C2CC2)C(=O)N1 (centres unmarked) [Compound I-70, 3-((1-Cyclopropyl-1H-benzo[d]imidazol-2-yl)thio)piperidine-2,6-dione] | 4.00 to 5.00
O=C1CCC(Sc2cccs2)C(=O)N1 (centres unmarked) [Compound I-72] | 4.00 to 5.00
O=C1CCC(Sc2ccccc2O)C(=O)N1 (centres unmarked) [Compound I-74] | 5.00 to 6.00
COc1ccccc1SC1CCC(=O)NC1=O (centres unmarked) [Compound I-75] | 4.00 to 5.00
CCc1ccc(OC2CCC(=O)NC2=O)cc1 (centres unmarked) [Compound I-78, 3-(4-ethylphenoxy)piperidine-2,6-dione] | 5.00 to 6.00
Cc1ccc(SC2CCC(=O)NC2=O)c(C)c1 (centres unmarked) [Compound I-79] | 5.00 to 6.00
Cc1occc1SC1CCC(=O)NC1=O (centres unmarked) [Compound I-80] | 4.00 to 5.00
O=C1CCC(Sc2ncccn2)C(=O)N1 (centres unmarked) [Compound I-83] | 4.00 to 5.00
CCCCc1ccc(SC2CCC(=O)NC2=O)cc1 (centres unmarked) [Compound I-84] | 5.00 to 6.00
CN(C)c1ccc(SC2CCC(=O)NC2=O)cc1 (centres unmarked) [Compound I-85] | 5.00 to 6.00
CCOc1cccc(SC2CCC(=O)NC2=O)c1 (centres unmarked) [Compound I-86] | 5.00 to 6.00
COc1cccc(SC2CCC(=O)NC2=O)c1 (centres unmarked) [Compound I-87] | 5.00 to 6.00
Cn1nc(N2CCC(=O)NC2=O)cc1-c1ccccc1 [Compound I-88, 1-(1-Methyl-5-phenyl-1H-pyrazol-3-yl)dihydropyrimidine-2,4(1H,3H)-dione] | 4.00 to 5.00
Cc1cc(C)nc(SC2CCC(=O)NC2=O)n1 (centres unmarked) [Compound I-89] | 4.00 to 5.00
O=C1CCC(Sc2ccc(Cl)cn2)C(=O)N1 (centres unmarked) [Compound I-90] | 5.00 to 6.00
O=C1CCC(Sc2cc(C(F)(F)F)cc(C(F)(F)F)c2)C(=O)N1 (centres unmarked) [Compound I-92] | 4.00 to 5.00
O=C1CCC(Sc2nc(=O)cc(-c3ccccc3)[nH]2)C(=O)N1 (centres unmarked) [Compound I-93] | 4.00 to 5.00
